Reference: publication PMC4805166, “Synthetic Cyclolipopeptides Selective against Microbial, Plant and Animal Cell Targets by Incorporation of D-Amino Acids or Histidine” (PLoS ONE, 2016)
Like-named read-outs stand apart in the source and are kept apart here. Where a SMILES comes first, the peptide text is derived from it. Side-chain parts run from the residue outwards. [ ]: non-standard residue; d: D form. The star is where a group is joined. Pentanoyl(4-Me) = CC(C)CCC(=O)*; Hexanoyl = CCCCCC(=O)*; Butyryl = CCCC(=O)*

Columns and labels:
[1] = system: Pseudomonas syringae pv. syringae EPS94; format: cell-based; details: 48 h
In short: (§1)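 Peptide dilutions (stocks 500–31.1 μM) mixed 1:10 with 10^8 CFU/mL bacterial suspension in TSB. Incubated 25 °C, OD600 read hourly for 48 h, triplicates, repeated twice. MIC: lowest concentration with no growth at end.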

[2] = system: Xanthomonas axonopodis pv. vesicatoria 2133–2; format: cell-based; details: TSB, 25°C, 48 h, OD 600 nm; tested at 3.1, 6.2, 12.5, 25, 50 μM; three replicates, experiment repeated twice; MIC = lowest concentration with no growth
In short: as §1

[3] = system: Erwinia amylovora PMV6076; test: MIC, in vitro growth inhibition; format: cell-based; details: TSB, 25°C, 48 h, OD 600 nm; tested at 3.1, 6.2, 12.5, 25, 50 μM; three replicates, experiment repeated twice; MIC = lowest concentration with no growth
In short: as §1

[4] = system: E. amylovora, P. syringae pv. syringae, X. axonopodis pv. vesicatoria and F. oxysporum; format: cell-based; details: for MIC against three pathogens: three of the four pathogens tested; for Antimicrobial activity, in words: authors' overall judgement over the pathogens tested; for MIC values over the pathogens tested: span of MIC values over the four pathogens
Experimental: The following plant pathogenic bacterial strains were used: Erwinia amylovora PMV6076 (Institut National de la Recherche Agronomique, Angers, France), Pseudomonas syringae pv. syringae EPS94 (Institut de Tecnologia Agroalimentària, Universitat de Girona, Spain) and Xanthomonas axonopodis pv. vesicatoria 2133–2 (Instituto Valenciano de Investigaciones Agrarias, Valencia, Spain). All bacteria were stored in Luria Bertani (LB) broth supplemented with glycerol (20%) and maintained at -80°C. Bacteria were scrapped from LB agar after growing for 24–48 h at 25°C. The cell material was suspended in sterile water to obtain a suspension of 10^8 CFU mL^-1.
Fusarium oxysporum f. sp. lycopersici FOL 3 race 2 (ATCC 201829, American Type Culture Collection) was used as fungal pathogen. The strain was cultured on potato dextrose agar (PDA) plates (Difco) and microconidia were obtained after growth at 25°C. The concentration of conidia was determined using a hemacytometer and adjusted to 10^4 conidia mL^-1.
Lyophilized peptides were solubilized in sterile Milli-Q water to a final concentration of 1 mM and filter sterilized through a 0.22-μm pore filter. For minimum inhibitory concentration (MIC) assessment, dilutions of the compounds were made to obtain a stock concentration of […]. For antibacterial activity twenty microlitres of each dilution were mixed in a microtiter plate well with 20 μL of the corresponding suspension of the bacterial indicator, 160 μL of Trypticase Soy Broth (TSB) (BioMèrieux, France) to a total volume of 200 μL. For antifungal activity 20 μL of each stock solution were mixed in a microtiter plate well with 80 μL of the corresponding suspension of the fungal pathogen and 100 μL of double concentrated PDB to a total volume of 200 μL containing 0.003% w/v of choramphenicol.
Three replicates for each strain, compound and concentration were used. Microbial growth was determined by optical density measurement at 600 nm (Bioscreen C, Labsystem, Helsinki, Finland). For antibacterial activity microplates were incubated at 25°C with 20 sec shaking before hourly absorbance measurement for 48 h. For antifungal activity microplates were incubated at 20°C with 1 min shaking before absorbance measurement that were done every two hours during seven days. The experiment was repeated twice. The MIC was taken as the lowest compound concentration with no growth at the end of the experiment.

[5] = system: Fusarium oxysporum f. sp. lycopersici FOL 3 race 2; test: MIC, antifungal growth inhibition; format: cell-based
In short: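 Microconidia are grown on PDA at 25 °C and adjusted to 10^4 conidia/mL. Peptide stocks of 500, 250, 125, 62.5 and 31.1 µM (stock, not final) are mixed with conidia in double-concentrated PDB with 0.003% chloramphenicol, in triplicate, and incubated at 20 °C. OD600 is read every 2 h for seven days, and MIC is the lowest concentration with no growth at the end.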

[6] = system: erythrocyte suspensions of horse blood; details: horse erythrocytes 5% vol/vol, TRIS buffer pH 7.2, 1 h at 37°C, absorbance 540 nm, relative to melittin 100 μM, ± confidence interval (α = 0.05); for Hemolysis (%) 150 µM: 150 µM peptide; for Hemolysis (%) 250 µM: 250 µM peptide;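 for all read-outs here: Read-out is hemoglobin release into the supernatant, with a buffer-only blank subtracted as the 0% baseline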
[7] = PDB with 0.003% chloramphenicol, 20°C, seven days, OD 600 nm, tested at 3.1, 6.2, 12.5, 25, 50 μM, three replicates, repeated twice

Compound | MIC Pss [1] [µM] | MIC Xav [2] [µM] | MIC Ea [3] [µM] | MIC against three pathogens [4] [µM] | MIC Fo [5, 7] [µM] | Hemolysis (%) 150 µM [6] [%] | Antimicrobial activity, in words [4] | Hemolysis (%) 250 µM [6] [%] | MIC values over the pathogens tested [4] [µM] | MIC Pss ([1]; TSB, 25°C, OD 600 nm, tested at 3.1, 6.2, 12.5, 25, 50 μM, three replicates, experiment repeated twice, MIC = lowest concentration with no growth) [µM] | MIC Fo [5] [µM]
CC(C)CCC(=O)NCCCC[C@@H]1NC(=O)[C@H](CCCCN)NC(=O)[C@H](CC(C)C)NC(=O)[C@H](CCCCN)NC(=O)[C@H](CCCCN)NC(=O)[C@H](CCC(N)=O)NC(=O)[C@H](CC(C)C)NC(=O)[C@H](CCCCN)NC(=O)[C@H](CCCCN)NC(=O)[C@H](Cc2ccccc2)NC1=O [BPC504, c(KKLKK(CO-isoC5H11)FKKLQ)] (cyclo(FKKLQKKLKK(Pentanoyl(4-Me)))) | 6.2 to 12.5 | 3.1 to 6.2 | 12.5 to 25 | < 12.5 | 3.1 to 6.2 | 89 ± 2 | – | – | – | – | –
CC(C)CCC(=O)NCCCC[C@H]1NC(=O)[C@H](CCCCN)NC(=O)[C@H](CC(C)C)NC(=O)[C@H](CCCCN)NC(=O)[C@H](CCCCN)NC(=O)[C@H](CCC(N)=O)NC(=O)[C@H](CC(C)C)NC(=O)[C@H](CCCCN)NC(=O)[C@H](CCCCN)NC(=O)[C@@H](Cc2ccccc2)NC1=O [BPC634, c(KKLKk(CO-isoC5H11)fKKLQ)] (cyclo(KKLK[dK](Pentanoyl(4-Me))[dF]KKLQ)) | 12.5 to 25 | 25 to 50 | >50 | – | 6.2 to 12.5 | 7 ± 1 | low active | 17 ± 8 | – | – | –
CCCCCC(=O)NCCCC[C@@H]1NC(=O)[C@H](CCCCN)NC(=O)[C@H](CC(C)C)NC(=O)[C@H](CCCCN)NC(=O)[C@H](CCCCN)NC(=O)[C@H](CCC(N)=O)NC(=O)[C@H](CC(C)C)NC(=O)[C@H](CCCCN)NC(=O)[C@H](CCCCN)NC(=O)[C@H](Cc2ccccc2)NC1=O [BPC528, c(KKLKK(CO-nC5H11)FKKLQ)] (cyclo(FKKLQKKLKK(Hexanoyl))) | 6.2 to 12.5 | 3.1 to 6.2 | 12.5 to 25 | < 12.5 | 6.2 to 12.5 | 98 ± 7 | – | – | 3.1 to 25 | – | –
c(KKLKK(CO-C8H17)FKKLQ) [BPC594] | – | 3.1 to 6.2 | 25 to 50 | < 12.5 | 6.2 to 12.5 | – | – | – | – | 6.2 to 12.5 | –
CCCCCC(=O)N[C@@H](CCCCN)C(=O)N[C@@H](CC(C)C)C(=O)NCCCC[C@@H]1NC(=O)[C@H](CCCCN)NC(=O)[C@H](CC(C)C)NC(=O)[C@H](CCCCN)NC(=O)[C@H](CCCCN)NC(=O)[C@H](CCC(N)=O)NC(=O)[C@H](CC(C)C)NC(=O)[C@H](CCCCN)NC(=O)[C@H](CCCCN)NC(=O)[C@H](Cc2ccccc2)NC1=O [BPC596, c(KKLKK(LK-CO-nC5H11)FKKLQ)] (cyclo(FKKLQKKLKK([Leu-Lys-Hexanoyl]))) | 6.2 to 12.5 | <3.1 | 12.5 to 25 | – | 12.5 to 25 | 93 ± 5 | important antimicrobial activity | 100 ± 11 | – | – | –
CCCCCC(=O)NCCCC[C@@H]1NC(=O)[C@H](CCCCN)NC(=O)[C@H](CCC(N)=O)NC(=O)[C@H](CC(C)C)NC(=O)[C@H](CCCCN)NC(=O)[C@H](CCCCN)NC(=O)[C@H](Cc2ccccc2)NC(=O)[C@H](CCCCN)NC(=O)[C@H](CCCCN)NC(=O)[C@H](CC(C)C)NC1=O [BPC588] (cyclo(FKKLQKK(Hexanoyl)LKK)) | 6.2 to 12.5 | 3.1 to 6.2 | 12.5 to 25 | – | 6.2 to 12.5 | 95 ± 4 | – | – | 3.1 to 25 | – | –
CCCCCC(=O)NCCCC[C@H]1NC(=O)[C@H](CCCCN)NC(=O)[C@H](CC(C)C)NC(=O)[C@H](CCCCN)NC(=O)[C@H](CCCCN)NC(=O)[C@H](CCC(N)=O)NC(=O)[C@H](CC(C)C)NC(=O)[C@H](CCCCN)NC(=O)[C@H](CCCCN)NC(=O)[C@@H](Cc2ccccc2)NC1=O [BPC632, c(KKLKk(CO-nC5H11)fKKLQ)] (cyclo(KKLK[dK](Hexanoyl)[dF]KKLQ)) | 12.5 to 25 | 25 to 50 | 25 to 50 | – | 12.5 to 25 | 21 ± 13 | low active | 22 ± 10 | – | – | –
CCCC(=O)NCCCC[C@@H]1NC(=O)[C@H](CCCCN)NC(=O)[C@H](CCC(N)=O)NC(=O)[C@H](CC(C)C)NC(=O)[C@H](CCCCN)NC(=O)[C@H](CCCCN)NC(=O)[C@H](Cc2ccccc2)NC(=O)[C@H](CCCCN)NC(=O)[C@H](CCCCN)NC(=O)[C@H](CC(C)C)NC1=O [BPC708] (cyclo(FKKLQKK(Butyryl)LKK)) | 12.5 to 25 | 6.2 to 12.5 | 25 to 50 | – | 3.1 to 6.2 | 2 ± 0.5 | active | 3 ± 1 | – | – | –
CC(C)C[C@@H]1NC(=O)[C@H](CCCCN)NC(=O)[C@H](CCCCN)NC(=O)[C@H](CCC(N)=O)NC(=O)[C@H](CC(C)C)NC(=O)[C@H](CCCCN)NC(=O)[C@H](CCCCN)NC(=O)[C@H](Cc2ccccc2)NC(=O)[C@H](CCCCN)NC(=O)[C@H](CCCCN)NC1=O [BPC194] (cyclo(FKKLQKKLKK)) | 3.1 to 6.2 | 3.1 to 6.2 | 6.2 to 12.5 | – | <3.1 | 4 ± 1 | high antimicrobial activity | – | – | – | < 3.1
CCCCCC(=O)NCCCC[C@H]1NC(=O)[C@H](CCC(N)=O)NC(=O)[C@H](CC(C)C)NC(=O)[C@H](CCCCN)NC(=O)[C@H](CCCCN)NC(=O)[C@H](Cc2ccccc2)NC(=O)[C@H](CCCCN)NC(=O)[C@H](CCCCN)NC(=O)[C@H](CC(C)C)NC(=O)[C@H](CCCCN)NC1=O [BPC684] (cyclo(FKKLQ[dK](Hexanoyl)KLKK)) | 12.5 to 25 | 6.2 to 12.5 | 25 to 50 | – | 6.2 to 12.5 | 8 ± 1 | – | – | – | – | –
